In patent US4880922A, “Carbapenems with quaternized heterothioalkylthio substitution at position 2” (Bristol-Myers Company, priority 1985, dated 1989):
Values after ≈ are worked out from the molar mass of the structure shown.

Legend:
Str. pneumoniae = assay: In vitro antibacterial activity, MIC by tube dilution; format: cell-based; settings: Streptococcus pneumoniae, Nutrient Broth, overnight, 37° C.
Str. pyogenes = assay: as above; format: cell-based; settings: Streptococcus pyogenes, Nutrient Broth, overnight, 37° C.
Staph. aureus = assay: as above; format: cell-based; settings: Staphylococcus aureus, Nutrient Broth, overnight, 37° C.
Staph. aureus (Pen-R) = assay: as above; format: cell-based; settings: Staphylococcus aureus, Nutrient Broth, overnight, 37° C.
Str. faecalis = assay: as above; format: cell-based; settings: Enterococcus faecalis, Nutrient Broth, overnight, 37° C.
E. coli = assay: as above; format: cell-based; settings: Escherichia coli, Nutrient Broth, overnight, 37° C.
K. pneumoniae = assay: as above; format: cell-based; settings: Klebsiella pneumoniae, Nutrient Broth, overnight, 37° C.
Pr. mirabilis = assay: as above; format: cell-based; settings: Proteus mirabilis, Nutrient Broth, overnight, 37° C.
Pr. vulgaris = assay: as above; format: cell-based; settings: Proteus vulgaris, Nutrient Broth, overnight, 37° C.
Pr. morganii = assay: as above; format: cell-based; settings: Morganella morganii, Nutrient Broth, overnight, 37° C.
Pr. rettgeri = assay: as above; format: cell-based; settings: Providencia rettgeri, Nutrient Broth, overnight, 37° C.
Ser. marcescens = assay: as above; format: cell-based; settings: Serratia marcescens, Nutrient Broth, overnight, 37° C.
Ent. cloacae = assay: as above; format: cell-based; settings: Enterobacter cloacae, Nutrient Broth, overnight, 37° C.
Ps. aeruginosa [1] = assay: as above; format: cell-based; settings: Pseudomonas aeruginosa, Nutrient Broth, overnight, 37° C.
Ps. (Carb-R) = assay: as above; format: cell-based; settings: Nutrient Broth, overnight, 37° C.
Ps. aeruginosa [2] = assay: Protective effect in the intramuscular treatment of infected mice; format: in vivo; settings: Pseudomonas aeruginosa, im, I.M., column of the in vitro table, read-out: PD50 I.M.
Procedure: The in vivo therapeutic efficacy of the compound of Example 1 after intramuscular administration to mice experimentally infected with various organisms are shown in the following Table. The PD50 (dose in mg/kg required to give protection to 50% of the infected mice) is indicated.
Treatment Schedule: Mice were treated i.m. with drugs 0 and 2 hours

[3] = Blood levels in mice after intramuscular administration; format: in vivo; settings: mouse, im, 20 mg/kg
From the text: (§1) Compounds were solubilized in 0.1 M phosphate buffer pH 7. Values are fro
(§2) a single test; 4 mice per compound.

[4] = Urinary recovery after intramuscular administration to mice; format: in vivo; settings: mouse, urine, im, 20 mg/kg, 0-24 hours after administration, 0.1 M phosphate buffer pH 7, single test, 4 mice, read-out: Urinary recovery, Percentage of Dose Recovered
From the text: as §1, §2

Compound: C[C@@H](O)[C@H]1C(=O)N2C(C(=O)[O-])=C(SCCSc3cccc[n+]3C)C[C@H]12 [Example 1, (5R,6S) 6-(1R-hydroxyethyl)-3-[(1-methylpyridinium-2-yl)-2-thioethylthio]-7-oxo-1-azabicyclo (3.2.0)hept-2-ene-2-carboxylate]
- MIC (Str. pneumoniae): 0.0005 µg/mL (≈ 0.00131 µM)
- MIC (Str. pyogenes): 0.0005 µg/mL (≈ 0.00131 µM)
- MIC (Staph. aureus; Staph. aureus + 50% serum): 0.008 µg/mL
- MIC (Staph. aureus; Staph. aureus): 0.004 µg/mL (≈ 0.0105 µM)
- MIC (Staph. aureus (Pen-R)): 0.004 µg/mL (≈ 0.0105 µM)
- MIC (Str. faecalis): 0.13 µg/mL (≈ 0.342 µM)
- MIC (E. coli; first line (strain not named)): 0.008 µg/mL (≈ 0.021 µM)
- MIC (E. coli; second line (strain not named)): 0.016 µg/mL (≈ 0.0421 µM)
- MIC (K. pneumoniae; first line (strain not named)): 0.03 µg/mL (≈ 0.0788 µM)
- MIC (K. pneumoniae; second line (strain not named)): 0.06 µg/mL (≈ 0.158 µM)
- MIC (Pr. mirabilis): 0.016 µg/mL (≈ 0.0421 µM)
- MIC (Pr. vulgaris): 0.016 µg/mL (≈ 0.0421 µM)
- MIC (Pr. morganii): 0.06 µg/mL (≈ 0.158 µM)
- MIC (Pr. rettgeri): 0.13 µg/mL (≈ 0.342 µM)
- MIC (Ser. marcescens): 0.03 µg/mL (≈ 0.0788 µM)
- MIC (Ent. cloacae; first line (strain not named)): 0.06 µg/mL (≈ 0.158 µM)
- MIC (Ent. cloacae; second line (strain not named)): 0.13 µg/mL (≈ 0.342 µM)
- MIC (Ps. aeruginosa [1]): 8 µg/mL (≈ 21 µM)
- MIC (Ps. (Carb-R)): 2 µg/mL (≈ 5.26 µM)
- ED50 (Ps. aeruginosa [2]): 2.9 mg/kg
- AUC [3]: 4100 ng·h/mL
- concentration at 10 min ([3]; 10 min after administration, read-out: Blood Level): 11100 ng/mL
- concentration at 20 min ([3]; 20 min after administration, read-out: Blood Level): 8000 ng/mL
- concentration at 0.5 h ([3]; 30 min after administration, read-out: Blood Level): 3600 ng/mL
- concentration at 0.75 h ([3]; 45 min after administration, read-out: Blood Level): 1000 ng/mL
- concentration at 1 h ([3]; 60 min after administration, read-out: Blood Level): < 300 ng/mL
- concentration at 1.5 h ([3]; 90 min after administration, read-out: Blood Level): < 300 ng/mL
- half-life ([3]; read-out: t1/2 (half-life)): 8 min
- dose excreted at 24 h [4]: 31.5%
